Laboratory results published in US8722052B2, “Vaccinia virus protein A46 peptide and use thereof” (priority 2008, dated 2014).
“Also recorded” adds a separate entry of the source. Square brackets hold non-standard residues; d marks the D form. Ends that are not written are not given here.

Columns and labels:
IL-12p40 = test: LPS-induced serum IL-12p40 in mice, ELISA; type: in vivo; settings: female BALB/c mice, serum at 4 hours; for serum IL-12p40 level compared with PBS-treated animals: i.v. 1 μg LPS with 3 mg/kg peptide; for inhibition of LPS-induced serum IL-12p40: i.v. single bolus 1 μg LPS with 3 mg/kg peptide
Experimental: FIG. 30 is a graph showing that A464 inhibits LPS-induced IL-12/23 p40 in vivo. Groups of 5 female BALB/c mice were injected i.v. with a single bolus of one of the following: PBS, 1 μg LPS, 1 μg LPS with 3 mg/kg D-9RN-A464 (SEQ ID NO. 38), 1 μg LPS with 3 mg/kg L-9RN-A464 (SEQ ID NO. 38), or 1 μg LPS with 3 mg/kg L-9RN-A467 (SEQ ID NO. 39). Four hours later, blood was harvested and serum derived. The serum was assayed for IL-12p40 by ELISA. Concentrations are expressed as pg/ml. * p<0.05, *** p<0.001 samples versus LPS. # p<0.01 samples versus PBS.
(§1) Cytokine and chemokine production from cells or mouse serum was measured by ELISA using Duoset kits from R&D systems, according to the manufacturer's instructions.
To do this we used a well characterised model of Gram negative sepsis, where mice are injected with LPS and serum cytokines are later analysed by ELISA. […] Mice were injected i.v. with LPS alone, or with peptide in the presence of LPS. Four hours later serum IL-12p40 concentrations were measured. […] Thus peptides based on the 464 sequence (SEQ ID No. 4) have efficacy in vivo. Thus peptides comprising the 464 sequence (SEQ ID No.4) can inhibit LPS induced proinflammatory IL-12p40 in vivo.

TLR3 = molecular target: T1, TLR3 (Mus musculus, UniProt Q99MB1); test: poly(I:C)-induced TNFα in RAW264.7 cells, ELISA; type: cell-based, murine; settings: peptide 5, 20 or 50 μM, 25 μg/ml Poly(I:C), 24 h
T1 construct: endogenous in cells; host or cells: RAW264.7
T1 sequence (Q99MB1 26-905): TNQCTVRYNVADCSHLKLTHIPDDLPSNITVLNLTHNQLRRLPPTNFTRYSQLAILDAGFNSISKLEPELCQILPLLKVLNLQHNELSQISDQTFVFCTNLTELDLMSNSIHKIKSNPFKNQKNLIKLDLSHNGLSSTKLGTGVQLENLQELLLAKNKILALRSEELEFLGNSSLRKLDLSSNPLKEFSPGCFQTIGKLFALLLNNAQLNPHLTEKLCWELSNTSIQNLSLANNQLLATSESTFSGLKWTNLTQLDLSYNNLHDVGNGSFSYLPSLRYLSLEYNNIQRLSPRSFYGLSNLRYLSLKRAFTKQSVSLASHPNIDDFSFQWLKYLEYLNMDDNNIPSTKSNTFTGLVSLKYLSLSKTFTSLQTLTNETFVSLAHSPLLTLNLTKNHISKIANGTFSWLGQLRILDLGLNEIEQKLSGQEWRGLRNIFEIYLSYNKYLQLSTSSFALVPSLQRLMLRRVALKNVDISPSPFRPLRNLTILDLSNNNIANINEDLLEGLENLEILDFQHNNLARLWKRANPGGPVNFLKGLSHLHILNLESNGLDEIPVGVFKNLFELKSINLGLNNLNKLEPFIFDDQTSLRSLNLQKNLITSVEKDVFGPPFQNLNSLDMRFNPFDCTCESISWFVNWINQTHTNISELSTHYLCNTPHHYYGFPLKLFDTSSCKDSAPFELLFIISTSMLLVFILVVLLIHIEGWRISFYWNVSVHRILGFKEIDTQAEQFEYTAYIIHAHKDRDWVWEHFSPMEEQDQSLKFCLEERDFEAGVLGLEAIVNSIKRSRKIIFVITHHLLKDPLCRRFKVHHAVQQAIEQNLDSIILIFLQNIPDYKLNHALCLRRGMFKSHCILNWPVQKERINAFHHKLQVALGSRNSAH
Experimental: FIGS. 10A and B are bar charts showing the effect of A464 on poly(I:C)-induced TNFα in murine RAW264.7 cells. Cells were seeded in 96 well plates (1.5×10^5 cells/nil) 24 hours before treatment. […] Supernatants were collected 24 hours after stimulation and assayed for TNFα by ELISA (A) and cells were assayed for viability by the MTT assay (B). No peptides were added to the control wells (black bars). Data is representative of at least three experiments each performed in triplicate and is expressed as mean±s.d;
as §1
In order to determine whether A464 (SEQ ID No. 20) was specific for TLR4, other TLR pathways were next assayed for sensitivity to A464 (SEQ ID No. 20). A scrambled version of A464 (SEQ ID No. 20) peptide was designed to use as a further control peptide, and this had the sequence: […] (ConA464, SEQ ID No. 32). The A464R (SEQ ID No. 20) and ConA464 (SEQ ID No. 32) peptides were assayed for inhibition of TLR2 signalling in THP-1 cells. Pam3CysK4 (S-(2,3-bis(palmitoyloxy)-(2-RS)-propyl)-N-palmitoyl-(R)-Cys-(S)-Ser-(S)-Lys(4)) is a synthetic tripalmitoylated lipopeptide that is recognized by a TLR2/TLR1 heterodimer and leads to activation of NFκB through a Mal- and MyD88-dependent pathway. […]

Substance | serum IL-12p40 level compared with PBS-treated animals (IL-12p40; listed as L-9RN-A464, 3 mg/kg) | inhibition of LPS-induced serum IL-12p40 (IL-12p40) | serum IL-12p40 level compared with PBS-treated animals (IL-12p40; 3 mg/kg) | inhibition of poly(I:C)-induced mTNFα production (TLR3)
9RN-A464 (RRRRRRRRRKYSFKLILAEY) [Peptide 9RN-A464] | not significantly different from mice receiving only PBS; also recorded: not significantly different from the PBS-treated animals | significantly inhibited LPS-induced IL-12p40 | – | –
D-9RN-A464 ([dR][dR][dR][dR][dR][dR][dR][dR][dR][dK][dY][dS][dF][dK][dL][dI][dL][dA][dE][dY]) [Peptide D-9RN-A464] | – | significantly inhibited LPS-induced IL-12p40 | not significantly different from mice receiving only PBS; also recorded: not significantly different from the PBS-treated animals | –
KYSFKLILAEYRRRRRRRRR [Peptide A464] | – | – | – | some inhibition of mTNFα production in response to stimulation with 25 mg/ml Poly(I:C) was seen but only at a concentration of 50 μM
